In the data set the test system is biocompartments 1 (biological cells). The data set is described as follows: Micro-flow chamber ISFET measurement of acidification and respiratory activity of biocompartments. The conditions noted are these: for acidification ΔpH−31 activated by the biocompartments / respiratory activity of the biocompartments: agent in culture medium, stand-still phase of pump, compared with agent-free medium (FIG. 5). Type of data set: cell-based.

Data on two molecules can be found in patent US7090996B2, “Process for examining membrane enclosed biocompartments” (Micronas GmbH, priority 2000, dated 2006).

Text: In a process for the examining of membrane enclosed biocompartments, biocompartments 1 were designed as biological cells placed in a micro-flow chamber 2. […] The space 3 is provided with an inlet opening 4 and an exit opening 5 for nutrient or culture medium. The chamber housing has a chamber base part 6 and a top part 7 which fits said base part 6 and the two parts are sealed liquid tight to one another by an interposed sealing ring 8.
The inlet opening 4 of the measurement space is connected to the measuring space 3 by a feed conduit 9, which in turn is connected to a culture medium supply 10. A pump 11 is placed in the feed canal 9 for the transport of the culture medium. The pump 11 can be turned on and off by means of a control apparatus (not shown). The exit opening 5 of the micro-flow chamber 2 is joined by means of a connecting line 12, to an exhaust opening 13 for release of the culture medium. In the measuring space 3, the biocompartments 1 stand in contact with the culture medium.
In the base of the measuring space 3, are placed a plurality of ISFET's 14. […] Between drain 16 and source 17, is a gate 18. Gate 18, drain 16 and source 17 are electrically insulated from the measurement space 3 by means of a silicon nitride layer (not shown). The silicon nitride layer forms on its side remote from the gate 18, an active sensor layer. By means of which layer, the ISFET 14 is controllable through the hydrogen ions present in the culture medium. Gate 18, drain 16 and source 17 of the ISFET are connected with a known evaluation apparatus for the determination of the pH value of the culture medium which is somewhat proportional to measurement signal of the respective ISFET 14.
As is particularly well presented in FIG. 2, an electrode 19 is placed in close proximity to the gates 18. This electrode 19 is constructed of a noble metal, such as palladium and is in direct contact with the culture medium.
A reference electrode 20 is paired with the operational electrode 19, which contacts the culture medium at a spatial distance from the ISFET 14. […] The reference electrode 20 and the operational electrodes 19 can be connected to an electrical source of potential for the application of an electric potential on the culture medium.
By means of the above described measurement arrangement, the respiratory activities of the biocompartments 1 can be indirectly measured. To carry out this purpose, the pump 11, which acts to transport the through-put of the culture medium through the measurement space 3, is temporarily stopped. In FIG. 4, the period of time during which the through-put in the measurement space 3 is stopped, is designated as the time T1 (stopping the pump 11) and T2 (starting the pump 11). This time interval can run, for instance, some 8 minutes.
Subsequently, by means of the ISFET 14, a first pH−1 is measured for the pH value of the culture medium, preparatory to a first pH measurement pair. […] When this occurs, this potential preferably is set at some −700 to −800 millivolts. In the embodiment of FIG. 3, this potential is applied to the electrodes 19, 20. The surface of the operational electrode 19 exposed to contact with the culture medium is chosen to be as small as possible with potential measuring preferably less than 1000 μm^2, so that, during the application of electrical voltage, the consumption of oxygen at the operational electrode 19 will be held at the lowest possible level. […]

Take Triton®: the “acidification ΔpH−31 activated by the biocompartments” value was “no longer influence the culture medium” and the “respiratory activity of the biocompartments” value is given as “no further sign of respiratory activity”. The “viability of the biocompartments” value (agent in culture medium (FIG. 7)) was “dying out”.

Consider `O=C(O)CI` [iodine acetate], for which the “acidification ΔpH−31 activated by the biocompartments” value is “recedes” and the “respiratory activity of the biocompartments” value was “increase”.
